The subject of experiment [1] is Staphylococcus aureus. The experiment is described as follows: Antibiofilm activity against methicillin-resistant Staphylococcus aureus assessed as inhibition of biofilm formation incubated for overnight by crystal violet staining based microtiter plate assay. The experiment is classed as functional, organism-based.
For experiment [2], the system named is Staphylococcus aureus. Kind of experiment: Antibiofilm activity against methicillin-resistant Staphylococcus aureus assessed as inhibition of biofilm formation by measuring residual biofilm growth incubated for overnight at 10-fold dilution by crystal violet staining based microtiter plate assay relative to control. The experiment is classed as functional.

Experiment [3] concerns Staphylococcus aureus. The experiment is described as follows: Antibacterial activity against methicillin-resistant Staphylococcus aureus assessed as alteration in bacterial growth incubated for overnight by microtiter plate based spectrophotometric analysis. The experiment is classed as functional, organism-based.

The source made the active and inactive calls. Non-standard residues stand in square brackets, D forms with d. Residues, ends and D or L forms follow the SMILES beside them. hArg = N=C(N)NCCCC[C@H](N)C(=O)O; Agb = N=C(N)NCC[C@H](N)C(=O)O; Agp = N=C(N)NC[C@H](N)C(=O)O; Orn = NCCC[C@H](N)C(=O)O; Dab = NCC[C@H](N)C(=O)O; Dap = NC[C@H](N)C(=O)O

Consider H-VRLIRAVRIWRR-NH2, for which the inhibition entry in the experiment with Staphylococcus aureus [1] is “Dose-dependent effect”. Further, in the experiment with Staphylococcus aureus [2], the “residual biofilm growth (% of control)” value is listed as 102%. In addition, the result in the experiment with Staphylococcus aureus [3] was Active.
In the case of `CC[C@H](C)[C@H](NC(=O)[C@H](CCCNC(=N)N)NC(=O)[C@@H](NC(=O)[C@H](C)NC(=O)[C@@H](NC(=O)[C@@H](NC(=O)[C@H](CC(C)C)NC(=O)[C@H](CCCNC(=N)N)NC(=O)[C@@H](N)C(C)C)[C@@H](C)CC)C(C)C)C(C)C)C(=O)N[C@@H](Cc1c[nH]c2ccccc12)C(=O)N[C@@H](CCCNC(=N)N)C(=O)N[C@@H](CCCN)C(N)=O` (H-VRLIVAVRIWR[Orn]-NH2), the inhibition entry with Staphylococcus aureus [1] is “Dose-dependent effect”. Moreover, the “residual biofilm growth (% of control)” value in the experiment with Staphylococcus aureus [2] is listed as 7.3%. Also, in the experiment on Staphylococcus aureus [3], the result was Active.
Taken in the same sequence, the figures for `CC[C@H](C)[C@H](NC(=O)[C@H](CCCNC(=N)N)NC(=O)[C@@H](NC(=O)[C@H](C)NC(=O)[C@@H](NC(=O)[C@@H](NC(=O)[C@H](CC(C)C)NC(=O)[C@H](CCCNC(=N)N)NC(=O)[C@@H](N)CCCCNC(=N)N)[C@@H](C)CC)C(C)C)C(C)C)C(=O)N[C@@H](Cc1c[nH]c2ccccc12)C(=O)N[C@@H](CCCNC(=N)N)C(=O)N[C@@H](CCCNC(=N)N)C(N)=O` (H-[hArg]RLIVAVRIWRR-NH2) were “Dose-dependent effect”, 17.1% and “Active”.
As for H-VRLKVAVRIWRR-NH2, the inhibition entry with Staphylococcus aureus [1] was “Dose-dependent effect”. For the same molecule, in the experiment with Staphylococcus aureus [2], the “residual biofilm growth (% of control)” value came to 10.7%. Further, the result in the experiment with Staphylococcus aureus [3] was Active.
Consider `CC[C@H](C)[C@H](NC(=O)[C@H](CCCNC(=N)N)NC(=O)[C@@H](NC(=O)[C@H](CCN)NC(=O)[C@@H](NC(=O)[C@@H](NC(=O)[C@H](CC(C)C)NC(=O)[C@H](CCCNC(=N)N)NC(=O)[C@@H](N)C(C)C)[C@@H](C)CC)C(C)C)C(C)C)C(=O)N[C@@H](Cc1c[nH]c2ccccc12)C(=O)N[C@@H](CCCNC(=N)N)C(=O)N[C@@H](CCCNC(=N)N)C(N)=O` (H-VRLIV[Dab]VRIWRR-NH2), for which the inhibition entry with Staphylococcus aureus [1] is “Dose-dependent effect”. For the same molecule, the “residual biofilm growth (% of control)” value in the experiment on Staphylococcus aureus [2] was determined as 52.7%. In addition, in the experiment on Staphylococcus aureus [3], the result was Active.
Taken in the same sequence, the figures for `CC[C@H](C)[C@H](NC(=O)[C@H](CCCNC(=N)N)NC(=O)[C@@H](NC(=O)[C@H](CCCN)NC(=O)[C@@H](NC(=O)[C@@H](NC(=O)[C@H](CC(C)C)NC(=O)[C@H](CCCNC(=N)N)NC(=O)[C@@H](N)C(C)C)[C@@H](C)CC)C(C)C)C(C)C)C(=O)N[C@@H](Cc1c[nH]c2ccccc12)C(=O)N[C@@H](CCCNC(=N)N)C(=O)N[C@@H](CCCNC(=N)N)C(N)=O` (H-VRLIV[Orn]VRIWRR-NH2) were “Dose-dependent effect”, 14.2% and “Active”.
Taken in the same sequence, the figures for `CC[C@H](C)[C@H](NC(=O)[C@H](CCCNC(=N)N)NC(=O)[C@@H](NC(=O)[C@H](CNC(=N)N)NC(=O)[C@@H](NC(=O)[C@@H](NC(=O)[C@H](CC(C)C)NC(=O)[C@H](CCCNC(=N)N)NC(=O)[C@@H](N)C(C)C)[C@@H](C)CC)C(C)C)C(C)C)C(=O)N[C@@H](Cc1c[nH]c2ccccc12)C(=O)N[C@@H](CCCNC(=N)N)C(=O)N[C@@H](CCCNC(=N)N)C(N)=O` (H-VRLIV[Agp]VRIWRR-NH2) were “Dose-dependent effect”, 104.8% and “Active”.
As to `CC[C@H](C)[C@H](NC(=O)[C@H](CCCNC(=N)N)NC(=O)[C@@H](NC(=O)[C@H](C)NC(=O)[C@@H](NC(=O)[C@@H](NC(=O)[C@H](CC(C)C)NC(=O)[C@H](CCCNC(=N)N)NC(=O)[C@@H](N)C(C)C)[C@@H](C)CC)C(C)C)C(C)C)C(=O)N[C@@H](Cc1c[nH]c2ccccc12)C(=O)N[C@@H](CNC(=N)N)C(=O)N[C@@H](CCCNC(=N)N)C(N)=O` (H-VRLIVAVRIW[Agp]R-NH2), the result in the experiment with Staphylococcus aureus [2] was inactive.
With H-VKLIVAVRIWRR-NH2, in the experiment with Staphylococcus aureus [1], the inhibition result was “Dose-dependent effect”. In addition, the “residual biofilm growth (% of control)” value with Staphylococcus aureus [2] was 7.6%. The result in the experiment on Staphylococcus aureus [3] was Active.
As for `CC[C@H](C)[C@H](NC(=O)[C@H](CCCNC(=N)N)NC(=O)[C@@H](NC(=O)[C@H](C)NC(=O)[C@@H](NC(=O)[C@@H](NC(=O)[C@H](CC(C)C)NC(=O)[C@H](CCCNC(=N)N)NC(=O)[C@@H](N)C(C)C)[C@@H](C)CC)C(C)C)C(C)C)C(=O)N[C@@H](CCNC(=N)N)C(=O)N[C@@H](CCCNC(=N)N)C(=O)N[C@@H](CCCNC(=N)N)C(N)=O` (H-VRLIVAVRI[Agb]RR-NH2), the inhibition entry with Staphylococcus aureus [1] was “Dose-dependent effect”. Moreover, the “residual biofilm growth (% of control)” value with Staphylococcus aureus [2] is reported as 103.7%. Also, in the experiment on Staphylococcus aureus [3], the outcome was Active.
Turning to `CC[C@H](C)[C@H](NC(=O)[C@H](CCCNC(=N)N)NC(=O)[C@@H](NC(=O)[C@H](C)NC(=O)[C@@H](NC(=O)[C@H](CN)NC(=O)[C@H](CC(C)C)NC(=O)[C@H](CCCNC(=N)N)NC(=O)[C@@H](N)C(C)C)C(C)C)C(C)C)C(=O)N[C@@H](Cc1c[nH]c2ccccc12)C(=O)N[C@@H](CCCNC(=N)N)C(=O)N[C@@H](CCCNC(=N)N)C(N)=O` (H-VRL[Dap]VAVRIWRR-NH2), the inhibition entry in the experiment with Staphylococcus aureus [1] is “Dose-dependent effect”. Further, the “residual biofilm growth (% of control)” value in the experiment on Staphylococcus aureus [2] turned out to be 108.3%. Moreover, the outcome in the experiment on Staphylococcus aureus [3] was Active.
On to H-VRLIVAVRIKRR-NH2, for which the inhibition result with Staphylococcus aureus [1] was “Dose-dependent effect”. For the same molecule, the “residual biofilm growth (% of control)” value with Staphylococcus aureus [2] is given as 44.7%. In addition, the outcome in the experiment with Staphylococcus aureus [3] was Active.
In the case of `CC[C@H](C)[C@H](NC(=O)[C@H](CCCNC(=N)N)NC(=O)[C@@H](NC(=O)[C@H](C)NC(=O)[C@@H](NC(=O)[C@@H](NC(=O)[C@H](CC(C)C)NC(=O)[C@H](CCCNC(=N)N)NC(=O)[C@@H](N)C(C)C)[C@@H](C)CC)C(C)C)C(C)C)C(=O)N[C@@H](Cc1c[nH]c2ccccc12)C(=O)N[C@@H](CCCNC(=N)N)C(=O)N[C@@H](CNC(=N)N)C(N)=O` (H-VRLIVAVRIWR[Agp]-NH2), the outcome with Staphylococcus aureus [2] was inactive.
Regarding `CC[C@H](C)[C@H](NC(=O)[C@H](CCCNC(=N)N)NC(=O)[C@@H](NC(=O)[C@H](C)NC(=O)[C@@H](NC(=O)[C@@H](NC(=O)[C@H](CC(C)C)NC(=O)[C@H](CCCNC(=N)N)NC(=O)[C@@H](N)C(C)C)[C@@H](C)CC)C(C)C)C(C)C)C(=O)N[C@@H](Cc1c[nH]c2ccccc12)C(=O)N[C@@H](CCN)C(=O)N[C@@H](CCCNC(=N)N)C(N)=O` (H-VRLIVAVRIW[Dab]R-NH2), the outcome with Staphylococcus aureus [2] was inactive.
Regarding `CC[C@H](C)[C@H](NC(=O)[C@H](CCCNC(=N)N)NC(=O)[C@@H](NC(=O)[C@H](C)NC(=O)[C@@H](NC(=O)[C@@H](NC(=O)[C@H](CC(C)C)NC(=O)[C@H](CCCNC(=N)N)NC(=O)[C@@H](N)C(C)C)[C@@H](C)CC)C(C)C)C(C)C)C(=O)N[C@@H](Cc1c[nH]c2ccccc12)C(=O)N[C@@H](CCCNC(=N)N)C(=O)N[C@@H](CCN)C(N)=O` (H-VRLIVAVRIWR[Dab]-NH2), the result in the experiment on Staphylococcus aureus [2] was inactive.
As for `CC[C@H](C)[C@H](NC(=O)[C@H](CCCNC(=N)N)NC(=O)[C@@H](NC(=O)[C@H](C)NC(=O)[C@@H](NC(=O)[C@@H](NC(=O)[C@H](CC(C)C)NC(=O)[C@H](CCCNC(=N)N)NC(=O)[C@@H](N)C(C)C)[C@@H](C)CC)C(C)C)C(C)C)C(=O)N[C@@H](Cc1c[nH]c2ccccc12)C(=O)N[C@@H](CCNC(=N)N)C(=O)N[C@@H](CCCNC(=N)N)C(N)=O` (H-VRLIVAVRIW[Agb]R-NH2), the outcome in the experiment on Staphylococcus aureus [2] was inactive.

Source of the values: ChEMBL document CHEMBL4376833, “Influence of Non-natural Cationic Amino Acids on the Biological Activity Profile of Innate Defense Regulator Peptides” (J Med Chem, 2019).
